# Data: patent US20140227311A1, “Method for Removing Immunosuppressive Properties of HIV Envelope Glycoproteins” (priority 2011, published 2014)
# Ends that are not written are not given here.
# System: CTLL-2 cells
# Format: cell-based
# Settings: dimerized peptides (disulfide); 24 h; wt effect at concentrations of 75 or 100 uM; FIG. 1
sequence,measurement,value
"LQARILAVERYLKDQQLLGIWGCGGEKEKEK (also: dimerized) [wt ISD, dimerized wild-type ISD peptide with GGEKEKEK tail]",inhibition of the proliferation of CTLL2 cells,inhibits the proliferation of the CTLL2 cells at concentrations of 75 or 100 uM
